# Values quoted from earlier work in patent US4933445A, “Heteroazabenzobicyclic carboxamide 5-HT3 antagonists” (Rorer Pharmaceutical Corporation, priority 1988, dated 1990).
# Test system: 5-HT3 receptor
# Settings: becomes more prominent at higher doses
structure (smiles),measurement,value
CCN(CC)CCNC(=O)c1cc(Cl)c(N)cc1OC [Metoclopramide],5-HT3-antagonist activity,weak
